pKi: −log10 of the molar value. “And” between values parts separate entries of the source, which are not always exact repeats. Equal values may be shown once.
Molecular target: T1, Muscarinic acetylcholine receptor M4 (Homo sapiens, UniProt P08173)
T1 sequence (P08173 whole entry): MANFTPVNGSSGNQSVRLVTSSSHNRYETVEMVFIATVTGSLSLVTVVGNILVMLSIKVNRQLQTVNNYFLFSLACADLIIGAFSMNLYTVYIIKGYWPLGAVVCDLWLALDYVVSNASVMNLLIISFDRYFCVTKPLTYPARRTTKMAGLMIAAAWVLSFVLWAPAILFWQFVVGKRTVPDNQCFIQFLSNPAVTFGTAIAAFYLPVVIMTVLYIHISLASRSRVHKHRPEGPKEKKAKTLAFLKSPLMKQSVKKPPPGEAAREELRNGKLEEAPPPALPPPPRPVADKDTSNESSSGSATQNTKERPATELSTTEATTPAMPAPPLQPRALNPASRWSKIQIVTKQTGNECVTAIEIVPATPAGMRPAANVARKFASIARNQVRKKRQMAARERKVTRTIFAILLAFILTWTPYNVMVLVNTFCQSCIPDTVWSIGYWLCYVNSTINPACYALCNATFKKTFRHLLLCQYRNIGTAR

Structure (SMILES)	pKi
O[Si](CCCN1CCCCC1)(c1ccccc1)C1CCCCC1 (configuration not stated) [HHSiD]	8.38 and 7.78
COc1ccccc1CNCCCCCCNCCCCCCCCNCCCCCCNCc1ccccc1OC [METHOCTRAMINE]	7.18 and 7.14
